Laboratory results: patent publication US20160158252A1, “PHARMACEUTICAL COMPOSITION AND USE OF DIETHYL (2-CYANOETHYL)PHOSPHONATE” (Olatec Therapeutics LLC, priority 2013, published 2016)
Like-named read-outs stand apart in the source and are kept apart here.

How the values were obtained:
[1] = test system: arachidonic acid-induced ear swelling; experiment: Arachidonic acid-induced ear swelling in mice (intraperitoneal administration); assay type: in vivo; conditions: measured at 90 minutes
Procedure: The protocols of this experiment were similar to Example 3, except the following differences. Test substance diethyl (2-cyanoethyl) phosphonate was dissolved in PBS to generate 1, 3 and 10 mg/mL testing solutions. Vehicle (PBS) at 10 mL/kg and diethyl (2-cyanoethyl) phosphonate at 10 mL/kg (10, 30, and 100 mg/kg) were administered intraperitoneally at 1 hour, and again 15 minutes before arachidonic acid (0.5 mg/ear) challenge. The positive control dexamethasone was administered orally 3 hours before arachidonic acid.
An ANOVA was done, and if p<0.05, a Dunnett's t test was employed to calculate significant difference between vehicle control and treated groups. Significance is set at P<0.05 level.
An ANOVA was done, and if p<0.05, a Dunnett's t test was employed to calculate significant difference between vehicle control and test compound treated groups. A pairwise Student's t test was used to calculate differences between the dexamethasone group and the control group. Significance is set at P<0.05 level.

[2] = test system: IL-6, TNFα, IFNγ, MIP-2 and RANTES; experiment: Pro-inflammatory cytokine release in rat challenged in vivo with lipopolysaccharide; conditions: given orally to rat, LPS challenge in vivo
[3] = test system: formalin-induced paw licking; experiment: Formalin test in mice (oral administration); assay type: in vivo, mice (male CD-1); conditions: for Licks per min (Between 0-10 min): early phase, vehicle 3.3; for Licks per min (Between 10-40 min): late phase, vehicle 1.4
Procedure: Formalin test is a model of continuous pain resulting from formalin-induced tissue injury. Nociceptive and inflammatory pain was induced by injection of a dilute formalin solution into the paw, resulting in nocifensive behavior including paw flinching. The formalin model encompasses inflammatory, neurogenic, and central mechanism of pain. The early phase of pain (from 0 to about 10 minutes) is due to nociceptive mechanism and the late phase of pain (from 10-40 minutes) is due to a combination of inflammatory pain and nociceptive mechanism. Pain behavior is assessed using manual paw licking measurements. The endpoints of the study are the number of paw licking events. (Hunskaar et al., Pain, 30:103-114, 1987; Li et al., Molecular Pain, 6:11, 2010)
Male CD-1 mice, about 34 g, were used in the study. Mice had free access to food and water, were maintained on a 12 hour:12 hour light/dark schedule for the entire duration of the study, and housed in soft bedding five per cage.
Immediately prior to testing (at time 0), mice were restrained in a cloth and injected with 20 μL of a 5% formalin solution, subcutaneously into the dorsal surface of the left hind paw. Vehicle control (n=10, water) and test compound diethyl (2-cyanoethyl) phosphonate (n=9, in water) were administered by oral gavage with a volume of 10 mL/kg to mice. The amounts of test compound were 10, 30, or 100 mg/kg per dose.
Positive control morphine was administered by subcutaneous injection at 4 mg/kg with a volume of 4 mL/kg to mice (n=10). […] The purpose of morphine is not to serve as a comparison with the test compound.
Morphine was subcutaneously administered once 15 minutes before formalin injection. The test compounds and vehicle control were orally administered twice (BID), at 60 and 15 minutes before formalin injection at time zero.
Following formalin injection, animals were placed in individual cages, and manually observed for 60 minutes. The licking events were recorded in five minute intervals continuously for a total of 60 minutes.
The number of licking events per minute was calculated between 0-10 minutes and 10-40 minutes for vehicle, positive control, and test compound. An ANOVA was done, and if p<0.05, a Dunnett's t test was employed to calculate significant difference between vehicle control and test compound treated groups. A pairwise Student's t test was used to calculate differences between the morphine group and the control group. Significance is set at P<0.05 level.

[4] = test system: tail flick reaction to heat (49° C. water bath); experiment: Tail flick test in mice (oral administration); assay type: in vivo
Procedure: Tail flick test is a test of the pain response in animals. Tail flick test is used in basic pain research and to measure the effectiveness of analgesics, by observing the tail flick reaction to heat in an animal. This test assesses the nociceptive response to a local pain stimulus, and the ability of a drug to inhibit this response.
Vehicle control (water) and test compound diethyl (2-cyanoethyl) phosphonate in water were administered by oral gavage to mice with a volume of 10 mL/kg, twice, at 60 and 15 minutes before the first tail flick measurement. The test compound was administered at a dosage of 10, 30, or 100 mg/kg in water. The positive control compound morphine was administered by subcutaneous injection at 8 mg/kg with a volume of 8 mL/kg, at 15 minutes before the first tail flick measurement. Each group had 10 mice.
The response of mice to heat stimulus was evaluated by measuring the time of tail-flick or tail-flick latency from 49° C. water bath. Briefly, the animal was placed in a restrainer with its tail hanging down. Approximately 2 inches of the tail was immersed in a beaker of water at 38±1° C. for about 30 seconds, and this was done twice to acclimate the animal to the procedure.
Subsequently, approximately 2 inches of the tail was immersed in a beaker of water at 49±1° C., at which point a timer was started.
Tail flick measurements were made 60, 80, 100, and 120 minutes post administration of the first dosage of test compound. An ANOVA was done, and if p<0.05, a Dunnett's t test was employed to calculate significant difference between vehicle control and test compound treated groups. A pairwise Student's t test was used to calculate differences between the morphine group and the control group. […] Analysis with p-values <0.05 is considered significant.

[5] = test system: arachidonic acid-induced ear swelling; experiment: Topical arachidonic acid-induced ear swelling model in mice (topical administration); assay type: in vivo, mice (male ICR); conditions: 90 minutes after arachidonic acid
Procedure: The test compound, indomethacin (positive control), and vehicle (acetone:ethanol/1:1) were evaluated for anti-inflammatory activity in a topical arachidonic acid-induced ear swelling model in mice.
Male ICR mice weighing 22±2 g were used and randomly divided; the test compound and vehicle control had 10 mice, and indomethacin had 5 mice. Arachidonic Acid (0.5 mg in 20 μl of acetone:ethanol/1:1) was applied topically to the anterior and posterior surfaces of the right ear of each mice. Test substances (in vehicle) and vehicle, as listed in Table 3 were similarly applied 30 min before and 15 min after arachidonic acid application. The thickness of the right ear and the left ear was measured and the difference calculated as an indication of the inflammation in the right ear. Ear swelling was measured by a Dyer model micrometer gauge at 60 and 90 minutes after arachidonic acid application as an index of inflammation. Percent inhibition was calculated according to the formula: Ic−It/Ic×100, where Ic and It refers to increase of ear thickness (mm) in control and treated mice, respectively. An ANOVA was done, and if p<0.05, a Dunnett's t test was employed to calculate significant difference between vehicle control and test compound treated groups. A pairwise Student's t test was used to calculate differences between the indomethacin group and the control group. Significance is set at P<0.05 level.

[6] = test system: formalin-induced paw licking; conditions: for Licks per min (Between 0-10 min) / Licks per min (Between 10-40 min): 375 mM topical BID; for Licks per min (Between 0-10 min): early phase, vehicle 4.4; for Licks per min (Between 10-40 min): late phase, vehicle 1.7
Procedure: The test compound diethyl (2-cyanoethyl) phosphonate (375 mM in vehicle, n=16) and vehicle control (acetone:ethanol 1:1, n=16) were administered topically by submerging the mouse left hind paw in the respective solution for about 30 seconds. The paw was then withdrawn and wiped with tissue to avoid excess dermal drying.
Positive control morphine was administered by subcutaneous injection at 4 mg/kg with a volume of 4 mL/kg to mice (n=16).
Morphine was subcutaneously administered once 15 minutes before formalin injection. The test compounds and vehicle control were topically administered twice (BID), at 90 and 15 minutes before formalin injection.
Following formalin injection, animals were placed in individual cages, and manually observed for 60 minutes. The licking events were recorded in five minute intervals continuously for a total of 40 minutes.
The number of licking events per minute was calculated between 0-10 minutes and 10-40 minutes for vehicle, positive control, and test compound. A two-sample t-test was done to compare the vehicle group with the test compound group. Significance is set at P<0.05 level. The same statistics were done comparing the vehicle group with the positive control group.

[7] = 100 mg/kg oral BID, listed as test compound

C[C@@H]1C[C@H]2[C@@H]3CCC4=CC(=O)C=C[C@]4(C)[C@@]3(F)[C@@H](O)C[C@]2(C)[C@@]1(O)C(=O)CO [Dexamethasone, dexamethasone, reference compound]
% Inhibition of ear swelling ([1]; 0.3 mg/kg orally 3 hours before arachidonic acid): 29%

CCOP(=O)(CCC#N)OCC [Diethyl (2-cyanoethyl) phosphonate, Diethyl (2-cyanoethyl)phosphonate]
Pro-inflammatory cytokine release (IL-6, TNFα, IFNγ, MIP-2 and RANTES) [2]: effective in inhibiting pro-inflammatory cytokine release
Licking events, difference from control ([3]; 10 mg/kg oral BID): did not show a statically significant difference from control
Licking events, difference from control ([3]; 30 mg/kg oral BID): did not show a statically significant difference from control
Efficacy after 40 minutes (licking events) ([3]; 100 mg/kg oral BID): did not last after 40 minutes
Licks per min (Between 0-10 min) ([3]; 100 mg/kg oral BID): 3.1 licks per min
Licks per min (Between 0-10 min) [3, 7]: no statistically significant difference
Licks per min (Between 10-40 min) ([3]; 100 mg/kg oral BID): 0.59 licks per min
Licks per min (Between 10-40 min) [3, 7]: statistically significant (p<0.05) reduction
Tail flick latency vs vehicle-treated mice ([4]; 30 mg/kg oral, twice, 60, 80, 100, 120 minutes): statistically significant tail flick latency at 60 and 80 minutes
Tail flick latency vs vehicle-treated mice ([4]; 100 mg/kg oral, twice, 60, 80, 100, 120 minutes): statistically significant tail flick latency at 60 and 100 minutes
% Inhibition of ear swelling ([5]; 375 mM in acetone:ethanol (1:1), 20 μL (1.4 mg/ear) applied twice topically): 55%
% Inhibition of ear swelling ([5]; 375 mM in acetone:ethanol (1:1), 20 μL (1.4 mg/ear) applied twice topically, listed as active compound): anti-inflammatory
% Inhibition of ear swelling ([5]; 375 mM in acetone:ethanol (1:1), 20 μL (1.4 mg/ear) applied twice topically, listed as tested compound): 55%
% Inhibition of ear swelling ([1]; 10 mg/kg intraperitoneally, twice): −8%
% Inhibition of ear swelling ([1]; 30 mg/kg intraperitoneally, twice): 0%
% Inhibition of ear swelling ([1]; 100 mg/kg intraperitoneally, twice): 34%
% Inhibition of ear swelling ([1]; 100 mg/kg intraperitoneally, twice, listed as tested compound): 37%
Licks per min (Between 0-10 min) [6]: 4.0 licks per min
Licks per min (Between 0-10 min) ([6]; listed as test compound): no statistically significant difference
Licks per min (Between 10-40 min) [6]: 1.1 licks per min
Licks per min (Between 10-40 min) ([6]; listed as test compound): statistically significant (p<0.05) reduction
Paw licking events after topical application alone without injection of formalin ([6]; 375 mM topical, no formalin): negligible number of paw licking events

COc1ccc2c(c1)c(CC(=O)O)c(C)n2C(=O)c1ccc(Cl)cc1 [Indomethacin, indomethacin, reference compound]
% Inhibition of ear swelling ([5]; 14 mM, 20 μL (0.1 mg/ear) applied twice topically): 58%

CN1CC[C@]23c4c5ccc(O)c4O[C@H]2[C@@H](O)C=C[C@H]3[C@H]1C5 [Morphine, morphine, reference compound]
Efficacy after 40 minutes (licking events) ([3]; mouse, in vivo): did not last after 40 minutes
Tail flick latency vs vehicle-treated mice ([4]; mouse, in vivo): statistically significant tail flick latency at all measured time points
